In ChEMBL document CHEMBL1275577, “Study of the in vitro activities of rifaximin and comparator agents against 536 anaerobic intestinal bacteria from the perspective of potential utility in pathology involving bowel flora” (Antimicrob Agents Chemother, 2009):

Columns and labels:
Type in all cases: functional
[1] = system: Parabacteroides distasonis; assay: Antimicrobial activity against Parabacteroides distasonis by Wadsworth agar dilution method
[2] = system: Bacteroides caccae; assay: Antimicrobial activity against Bacteroides caccae by Wadsworth agar dilution method
[3] = system: Desulfovibrio desulfuricans; assay: Antimicrobial activity against Desulfovibrio desulfuricans by Wadsworth agar dilution method
[4] = system: Desulfovibrio fairfieldensis; assay: Antimicrobial activity against Desulfovibrio fairfieldensis by Wadsworth agar dilution method
[5] = system: Fusobacterium nucleatum; assay: Antimicrobial activity against Fusobacterium nucleatum by Wadsworth agar dilution method
[6] = system: Porphyromonas uenonis; assay: Antimicrobial activity against Porphyromonas uenonis by Wadsworth agar dilution method
[7] = system: Clostridium hathewayi; assay: Antimicrobial activity against Clostridium hathewayi by Wadsworth agar dilution method; settings: Hungatella hathewayi
[8] = system: Flavonifractor plautii; assay: Antimicrobial activity against Clostridium orbiscindens by Wadsworth agar dilution method
[9] = system: Clostridium perfringens; assay: Antimicrobial activity against Clostridium perfringens by Wadsworth agar dilution method
[10] = system: Clostridium fallax; assay: Antimicrobial activity against Clostridium fallax by Wadsworth agar dilution method
[11] = system: Clostridium symbiosum; assay: Antimicrobial activity against Clostridium symbiosum by Wadsworth agar dilution method
[12] = system: Bifidobacterium bifidum; assay: Antimicrobial activity against Bifidobacterium bifidum by Wadsworth agar dilution method
[13] = system: Bifidobacterium breve; assay: Antimicrobial activity against Bifidobacterium breve by Wadsworth agar dilution method
[14] = Antimicrobial activity against Bifidobacterium pseudocatenulatum by Wadsworth agar dilution method
[15] = system: Coprobacillus cateniformis; assay: Antimicrobial activity against Coprobacillus cateniformis by Wadsworth agar dilution method
[16] = system: Peptoniphilus harei; assay: Antimicrobial activity against Peptoniphilus harei by Wadsworth agar dilution method
[17] = system: Ruminococcus gnavus; assay: Antimicrobial activity against Ruminococcus gnavus by Wadsworth agar dilution method; settings: Mediterraneibacter gnavus
[18] = system: Ruminococcus lactaris; assay: Antimicrobial activity against Ruminococcus lactaris by Wadsworth agar dilution method
[19] = system: Blautia luti; assay: Antimicrobial activity against Ruminococcus luti by Wadsworth agar dilution method
[20] = system: Parabacteroides merdae; assay: Antimicrobial activity against Parabacteroides merdae by Wadsworth agar dilution method in presence of beta-lactamase inhibitor Sulbactam
[21] = system: Bacteroides uniformis; assay: Antimicrobial activity against Bacteroides uniformis by Wadsworth agar dilution method in presence of beta-lactamase inhibitor Sulbactam
[22] = system: Desulfovibrio vulgaris; assay: Antimicrobial activity against Desulfovibrio vulgaris by Wadsworth agar dilution method in presence of beta-lactamase inhibitor Sulbactam; settings: Nitratidesulfovibrio vulgaris
[23] = system: Desulfovibrio sp.; assay: Antimicrobial activity against Desulfovibrio sp. by Wadsworth agar dilution method in presence of beta-lactamase inhibitor Sulbactam
[24] = system: Fusobacterium necrophorum; assay: Antimicrobial activity against Fusobacterium necrophorum by Wadsworth agar dilution method in presence of beta-lactamase inhibitor Sulbactam
[25] = system: Porphyromonas asaccharolytica; assay: Antimicrobial activity against Porphyromonas asaccharolyticus by Wadsworth agar dilution method in presence of beta-lactamase inhibitor Sulbactam
[26] = system: Hoylesella loescheii; assay: Antimicrobial activity against Prevotella loescheii by Wadsworth agar dilution method in presence of beta-lactamase inhibitor Sulbactam
[27] = system: Enterocloster clostridioformis; assay: Antimicrobial activity against Clostridium clostridioforme by Wadsworth agar dilution method in presence of beta-lactamase inhibitor Sulbactam
[28] = system: Clostridium aminobutyricum; assay: Antimicrobial activity against Clostridium aminobutyricum by Wadsworth agar dilution method in presence of beta-lactamase inhibitor Sulbactam
[29] = system: Clostridium beijerinckii; assay: Antimicrobial activity against Clostridium beijerinckii by Wadsworth agar dilution method in presence of beta-lactamase inhibitor Sulbactam
[30] = system: Tissierella praeacuta; assay: Antimicrobial activity against Clostridium hastiforme by Wadsworth agar dilution method in presence of beta-lactamase inhibitor Sulbactam
[31] = system: Clostridium symbiosum; assay: Antimicrobial activity against Clostridium symbiosum by Wadsworth agar dilution method in presence of beta-lactamase inhibitor Sulbactam
[32] = system: Bifidobacterium adolescentis; assay: Antimicrobial activity against Bifidobacterium adolescentis by Wadsworth agar dilution method in presence of beta-lactamase inhibitor Sulbactam
[33] = system: Bifidobacterium breve; assay: Antimicrobial activity against Bifidobacterium breve by Wadsworth agar dilution method in presence of beta-lactamase inhibitor Sulbactam
[34] = system: Eubacterium callanderi; assay: Antimicrobial activity against Eubacterium callanderi by Wadsworth agar dilution method in presence of beta-lactamase inhibitor Sulbactam
[35] = system: Lactobacillus jensenii; assay: Antimicrobial activity against Lactobacillus jensenii by Wadsworth agar dilution method in presence of beta-lactamase inhibitor Sulbactam
[36] = system: Lactiplantibacillus plantarum; assay: Antimicrobial activity against Lactobacillus plantarum by Wadsworth agar dilution method in presence of beta-lactamase inhibitor Sulbactam
[37] = system: Cutibacterium acnes; assay: Antimicrobial activity against Propionibacterium acnes by Wadsworth agar dilution method in presence of beta-lactamase inhibitor Sulbactam
[38] = system: Anaerococcus prevotii; assay: Antimicrobial activity against Anaerococcus prevotii by Wadsworth agar dilution method in presence of beta-lactamase inhibitor Sulbactam
[39] = system: Peptostreptococcus anaerobius; assay: Antimicrobial activity against Peptostreptococcus anaerobius by Wadsworth agar dilution method in presence of beta-lactamase inhibitor Sulbactam
[40] = system: Blautia producta; assay: Antimicrobial activity against Ruminococcus productus by Wadsworth agar dilution method in presence of beta-lactamase inhibitor Sulbactam

CO[C@H]1/C=C/O[C@@]2(C)Oc3c(C)c(O)c4c(O)c(c5c(nc6cc(C)ccn65)c4c3C2=O)NC(=O)/C(C)=C\C=C\[C@H](C)[C@H](O)[C@@H](C)[C@@H](O)[C@@H](C)[C@H](OC(C)=O)[C@@H]1C [RIFAXIMIN]
64 µg/mL: MIC90 [3]
1 µg/mL: MIC90 [1]
332 µg/mL: MIC90 [4]
32 µg/mL: MIC [3] | MIC50 [3]
0.25 µg/mL: MIC [1] | MIC50 [1] | MIC [2] | MIC50 [2] | MIC [6] | MIC50 [6] | MIC50 [7] | MIC90 [7] | MIC50 [9] | MIC90 [9] | MIC [10] | MIC50 [10] | MIC [11] | MIC50 [11] | MIC [16] | MIC50 [16] | MIC [17] | MIC50 [17] | MIC [18] | MIC50 [18] | MIC [19] | MIC50 [19]
8 µg/mL: MIC90 [5]
> 1020 µg/mL: MIC50 [8] | MIC90 [8] | MIC90 [10] | MIC90 [11] | MIC90 [12] | MIC90 [13] | MIC90 [14] | MIC90 [15]
16 µg/mL: MIC50 [4]
4 µg/mL: MIC90 [16] | MIC90 [17] | MIC90 [18] | MIC90 [19]
0.5 µg/mL: MIC90 [6] | MIC50 [12] | MIC50 [13] | MIC50 [14] | MIC50 [15]
2 µg/mL: MIC50 [5]
> 0.5 µg/mL: MIC90 [2]

NC[C@@H]1O[C@H](O[C@H]2[C@@H](O)[C@H](O[C@@H]3[C@@H](O)[C@H](N)C[C@H](N)[C@H]3O[C@H]3O[C@H](CN)[C@@H](O)[C@H](O)[C@H]3N)O[C@@H]2CO)[C@H](N)[C@@H](O)[C@@H]1O [FRAMYCETIN]
1020 µg/mL: MIC50 [1] | MIC90 [4] | MIC50 [5] | MIC90 [5] | MIC50 [9] | MIC90 [10] | MIC90 [11] | MIC90 [12] | MIC90 [13] | MIC90 [14] | MIC90 [15]
64 µg/mL: MIC50 [7]
256 µg/mL: MIC50 [4] | MIC50 [8] | MIC50 [10] | MIC50 [11]
> 1020 µg/mL: MIC90 [1] | MIC50 [2] | MIC90 [2] | MIC [3] | MIC50 [3] | MIC90 [3] | MIC90 [6] | MIC90 [9]
128 µg/mL: MIC50 [12] | MIC50 [13] | MIC50 [14] | MIC50 [15] | MIC50 [16] | MIC50 [17] | MIC50 [18] | MIC50 [19]
512 µg/mL: MIC50 [6] | MIC90 [7] | MIC90 [8] | MIC90 [16] | MIC90 [17] | MIC90 [18] | MIC90 [19]

CC1(C)S[C@@H]2[C@H](NC(=O)[C@H](N)c3ccccc3)C(=O)N2[C@H]1C(=O)O [AMPICILLIN]
1 µg/mL: MIC50 [24] | MIC [27] | MIC50 [27] | MIC90 [28] | MIC90 [29] | MIC90 [30] | MIC90 [31]
4 µg/mL: MIC50 [22] | MIC50 [23] | MIC90 [24] | MIC90 [26]
32 µg/mL: MIC90 [20] | MIC90 [22] | MIC90 [23]
0.5 µg/mL: MIC90 [25] | MIC50 [26]
0.25 µg/mL: MIC [25] | MIC50 [25] | MIC [28] | MIC50 [28] | MIC [29] | MIC50 [29] | MIC [30] | MIC50 [30] | MIC [31] | MIC50 [31] | MIC [32] | MIC50 [32] | MIC [33] | MIC50 [33] | MIC [34] | MIC50 [34] | MIC [35] | MIC50 [35] | MIC [36] | MIC50 [36] | MIC [37] | MIC50 [37] | MIC [38] | MIC50 [38] | MIC [39] | MIC50 [39] | MIC [40] | MIC50 [40]
16 µg/mL: MIC50 [20] | MIC90 [21] | MIC90 [27]
2 µg/mL: MIC50 [21] | MIC90 [32] | MIC90 [33] | MIC90 [34] | MIC90 [35] | MIC90 [36] | MIC90 [37] | MIC90 [38] | MIC90 [39] | MIC90 [40]
